# Molecular target: T1, Dual specificity protein kinase TTK (Homo sapiens, UniProt P33981)
# T1 sequence (P33981 whole entry): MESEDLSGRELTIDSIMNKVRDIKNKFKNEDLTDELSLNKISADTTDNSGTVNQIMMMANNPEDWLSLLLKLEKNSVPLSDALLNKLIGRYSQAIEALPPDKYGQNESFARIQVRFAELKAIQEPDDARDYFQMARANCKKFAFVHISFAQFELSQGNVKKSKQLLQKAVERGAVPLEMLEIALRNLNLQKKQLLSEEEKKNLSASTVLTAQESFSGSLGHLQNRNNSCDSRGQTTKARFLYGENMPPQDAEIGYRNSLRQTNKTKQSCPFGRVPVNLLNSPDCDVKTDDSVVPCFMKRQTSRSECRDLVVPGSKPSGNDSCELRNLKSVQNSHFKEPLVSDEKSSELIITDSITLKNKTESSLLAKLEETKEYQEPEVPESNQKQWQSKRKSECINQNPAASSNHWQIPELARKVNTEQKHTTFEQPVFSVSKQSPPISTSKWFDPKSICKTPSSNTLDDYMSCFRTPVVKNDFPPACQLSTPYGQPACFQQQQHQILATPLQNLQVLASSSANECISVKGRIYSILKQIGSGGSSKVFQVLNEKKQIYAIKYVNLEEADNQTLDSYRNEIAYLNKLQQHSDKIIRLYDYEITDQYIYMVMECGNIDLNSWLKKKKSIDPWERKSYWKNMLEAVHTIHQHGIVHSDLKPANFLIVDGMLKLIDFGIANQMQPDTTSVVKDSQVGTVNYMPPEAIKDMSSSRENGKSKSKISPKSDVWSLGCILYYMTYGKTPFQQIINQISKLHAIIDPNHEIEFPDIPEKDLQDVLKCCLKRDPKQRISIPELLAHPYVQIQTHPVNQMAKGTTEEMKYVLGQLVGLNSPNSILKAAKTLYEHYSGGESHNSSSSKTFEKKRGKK
# Test: Inhibition of MPS1 assessed as [33P]-gamma-ATP incorporation into substrate P38-betatide by gamma counting
# Settings: not given
row,SMILES,IC50 [nM]
1,COc1ccccc1Nc1ncc2c(n1)-c1c(c(C(N)=O)nn1C)CC2,66
2,Cc1ccccc1Nc1ncc2c(n1)-c1c(c(C(N)=O)nn1C)CC2,241
3,CCc1cccc(CC)c1NC(=O)c1nn(C)c2c1CCc1cnc(Nc3ccc(C(=O)NCCN(C)C)cc3OC(F)(F)F)nc1-2,130

# Now from value to compound:
row,IC50 [nM],SMILES
1,206,CCc1cccc(CC)c1NC(=O)c1nn(C)c2c1CCc1cnc(Nc3ccc(C(=O)N4CCC(N(C)C)CC4)cc3OC(F)(F)F)nc1-2
2,19,CCc1cccc(CC)c1NC(=O)c1nn(C)c2c1CCc1cnc(Nc3ccc(C(=O)N4CCC(N(C)C)CC4)cc3OC)nc1-2

# Molecular target: T2, Aurora kinase A (Homo sapiens, UniProt O14965)
# T2 sequence (O14965 whole entry): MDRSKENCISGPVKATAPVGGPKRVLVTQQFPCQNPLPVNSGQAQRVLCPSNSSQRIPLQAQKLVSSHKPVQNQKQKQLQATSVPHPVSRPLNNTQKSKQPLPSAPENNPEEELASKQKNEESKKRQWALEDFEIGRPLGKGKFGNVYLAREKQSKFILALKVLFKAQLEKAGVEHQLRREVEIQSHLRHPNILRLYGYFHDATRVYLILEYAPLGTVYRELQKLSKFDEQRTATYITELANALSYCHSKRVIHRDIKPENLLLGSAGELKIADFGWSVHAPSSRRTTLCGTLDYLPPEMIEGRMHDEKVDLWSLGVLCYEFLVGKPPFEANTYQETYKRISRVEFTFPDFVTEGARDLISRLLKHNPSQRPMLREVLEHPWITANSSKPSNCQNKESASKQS
# Test: Inhibition of Aur-A assessed as [33P]-gamma-ATP incorporation into substrate by gamma counting
# Settings: not given
row,IC50 [nM],SMILES
1,484,CCc1cccc(CC)c1NC(=O)c1nn(C)c2c1CCc1cnc(Nc3ccc(C(=O)N4CCC(N(C)C)CC4)cc3OC)nc1-2
2,1380,CCc1cccc(CC)c1NC(=O)c1nn(C)c2c1CCc1cnc(Nc3ccc(C(=O)NCCN(C)C)cc3OC(F)(F)F)nc1-2
3,> 10000,CCc1cccc(CC)c1NC(=O)c1nn(C)c2c1CCc1cnc(Nc3ccc(C(=O)N4CCC(N(C)C)CC4)cc3OC(F)(F)F)nc1-2

# Molecular target: Cyclin-dependent kinase 2/cyclin A (Homo sapiens, UniProt P24941)
# Test: Inhibition of CDK2/Cyclin A assessed as [33P]-gamma-ATP incorporation into substrate by gamma counting
# Type: protein-complex assay
# Settings: not given
row,IC50 [nM],SMILES
1,> 10000,CCc1cccc(CC)c1NC(=O)c1nn(C)c2c1CCc1cnc(Nc3ccc(C(=O)N4CCC(N(C)C)CC4)cc3OC)nc1-2
2,> 10000,CCc1cccc(CC)c1NC(=O)c1nn(C)c2c1CCc1cnc(Nc3ccc(C(=O)NCCN(C)C)cc3OC(F)(F)F)nc1-2
3,> 10000,CCc1cccc(CC)c1NC(=O)c1nn(C)c2c1CCc1cnc(Nc3ccc(C(=O)N4CCC(N(C)C)CC4)cc3OC(F)(F)F)nc1-2

# Molecular target: Serine/threonine-protein kinase PLK1 (Homo sapiens, UniProt P53350)
# Test: Inhibition of PLK1 assessed as [33P]-gamma-ATP incorporation into substrate by gamma counting
# Settings: not given
# Sequence of Serine/threonine-protein kinase PLK1 (P53350 whole entry): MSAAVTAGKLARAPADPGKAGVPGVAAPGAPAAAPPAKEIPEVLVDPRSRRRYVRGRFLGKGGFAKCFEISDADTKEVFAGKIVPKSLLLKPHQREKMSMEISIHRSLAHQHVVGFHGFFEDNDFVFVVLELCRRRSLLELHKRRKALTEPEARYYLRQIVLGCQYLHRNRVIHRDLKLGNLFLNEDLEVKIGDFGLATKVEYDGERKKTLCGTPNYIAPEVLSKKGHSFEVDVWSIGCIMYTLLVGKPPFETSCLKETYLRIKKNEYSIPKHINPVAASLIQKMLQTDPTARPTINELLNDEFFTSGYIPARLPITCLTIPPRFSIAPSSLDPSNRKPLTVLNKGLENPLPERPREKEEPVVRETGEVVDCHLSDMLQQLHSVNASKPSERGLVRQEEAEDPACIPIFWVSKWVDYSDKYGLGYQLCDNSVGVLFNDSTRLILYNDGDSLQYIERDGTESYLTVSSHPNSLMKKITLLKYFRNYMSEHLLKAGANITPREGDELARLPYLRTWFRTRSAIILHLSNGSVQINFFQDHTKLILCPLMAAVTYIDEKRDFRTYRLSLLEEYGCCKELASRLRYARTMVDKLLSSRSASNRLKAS
row,SMILES,IC50 [nM]
1,CCc1cccc(CC)c1NC(=O)c1nn(C)c2c1CCc1cnc(Nc3ccc(C(=O)NC4CCN(C)CC4)cc3OC(F)(F)F)nc1-2,> 10000
2,CCc1cccc(CC)c1NC(=O)c1nn(C)c2c1CCc1cnc(Nc3ccc(C(=O)NCCN(C)C)cc3OC(F)(F)F)nc1-2,> 10000

# Second part, the compound after the results:
row,IC50 [nM],SMILES
1,> 10000,CCc1cccc(CC)c1NC(=O)c1nn(C)c2c1CCc1cnc(Nc3ccc(C(=O)N4CCC(N(C)C)CC4)cc3OC(F)(F)F)nc1-2
2,> 10000,CCc1cccc(CC)c1NC(=O)c1nn(C)c2c1CCc1cnc(Nc3ccc(C(=O)N4CCC(N(C)C)CC4)cc3OC)nc1-2

# System: A2780
# Test: Antiproliferative activity in human A2780 cells after 72 hrs by CellTiter-Glo assay
# Type: functional, cell-based
# Settings: A2780, 72 h
row,SMILES,IC50 [nM]
1,CCc1cccc(CC)c1NC(=O)c1nn(C)c2c1CCc1cnc(Nc3ccc(C(=O)NC4CCN(C)CC4)cc3OC(F)(F)F)nc1-2,1000
2,CCc1cccc(CC)c1NC(=O)c1nn(C)c2c1CCc1cnc(Nc3ccc(C(=O)NCCN(C)C)cc3OC(F)(F)F)nc1-2,771

# Second part, the compound after the results:
row,IC50 [nM],SMILES
1,485,CCc1cccc(CC)c1NC(=O)c1nn(C)c2c1CCc1cnc(Nc3ccc(C(=O)N4CCC(N(C)C)CC4)cc3OC(F)(F)F)nc1-2
2,83,CCc1cccc(CC)c1NC(=O)c1nn(C)c2c1CCc1cnc(Nc3ccc(C(=O)N4CCC(N(C)C)CC4)cc3OC)nc1-2

# System: not listed separately
# Test: Solubility of the compound at pH 7
# Type: physicochemical
# Settings: buffer
row,SMILES,solubility [µM]
1,CCc1cccc(CC)c1NC(=O)c1nn(C)c2c1CCc1cnc(Nc3ccc(C(=O)NC4CCN(C)CC4)cc3OC(F)(F)F)nc1-2,45
2,CCc1cccc(CC)c1NC(=O)c1nn(C)c2c1CCc1cnc(Nc3ccc(C(=O)NCCN(C)C)cc3OC(F)(F)F)nc1-2,27

# Results, then the compound that gave them:
row,solubility [µM],SMILES
1,70,CCc1cccc(CC)c1NC(=O)c1nn(C)c2c1CCc1cnc(Nc3ccc(C(=O)N4CCC(N(C)C)CC4)cc3OC(F)(F)F)nc1-2
2,116,CCc1cccc(CC)c1NC(=O)c1nn(C)c2c1CCc1cnc(Nc3ccc(C(=O)N4CCC(N(C)C)CC4)cc3OC)nc1-2

# System: U2OS
# Test: Inhibition of mitosis in human U2OS cells assessed as histone H3 phosphorylation at Ser 10 residue after 2 hrs by immunoassay
# Type: functional, cell-based
# Settings: not given
row,SMILES,IC50 [nM]
1,CCc1cccc(CC)c1NC(=O)c1nn(C)c2c1CCc1cnc(Nc3ccc(C(=O)NC4CCN(C)CC4)cc3OC(F)(F)F)nc1-2,32
2,CCc1cccc(CC)c1NC(=O)c1nn(C)c2c1CCc1cnc(Nc3ccc(C(=O)NCCN(C)C)cc3OC(F)(F)F)nc1-2,110

# The next lines start with the values.
row,IC50 [nM],SMILES
1,40,CCc1cccc(CC)c1NC(=O)c1nn(C)c2c1CCc1cnc(Nc3ccc(C(=O)N4CCC(N(C)C)CC4)cc3OC(F)(F)F)nc1-2
2,2,CCc1cccc(CC)c1NC(=O)c1nn(C)c2c1CCc1cnc(Nc3ccc(C(=O)N4CCC(N(C)C)CC4)cc3OC)nc1-2

# System: Mus musculus
# Test: Antitumor activity against human A2780 cells xenografted in mouse assessed as tumor growth inhibition at 90 mg/kg, po for seven consecutive days
# Type: functional
# Settings: read-out: GI
row,SMILES,inhibition in vivo at 90 mg/kg [%]
1,CCc1cccc(CC)c1NC(=O)c1nn(C)c2c1CCc1cnc(Nc3ccc(C(=O)NC4CCN(C)CC4)cc3OC(F)(F)F)nc1-2,53

# System: Mus musculus
# Test: Toxicity in mouse assessed as body weight loss at 90 mg/kg, po for seven consecutive days
# Type: organism-based
# Design: dose 90 mg/kg, route oral
# Settings: in vivo
row,SMILES,Activity
1,CCc1cccc(CC)c1NC(=O)c1nn(C)c2c1CCc1cnc(Nc3ccc(C(=O)NC4CCN(C)CC4)cc3OC(F)(F)F)nc1-2,Non-toxic
